Assay results from patent US9670242B2, “Tetracyclic anthraquinone derivatives” (Tianjin Hemay Bio-Tech Co., Ltd, priority 2012, dated 2017).

Experiments:
[1] = tested on: NCI-446 cells; experiment: NCI-446 cell growth inhibition test (MTT assay); assay type: cell-based, human; conditions: 72 h
Experimental: NCI-446 Cell Growth Inhibition Test (MTT Assay)
II. Reagents and Consumable Materials Culture medium: 90% RPMI1640+10% FBS (fetal calf serum); Pancreatin (0.25% (w/v) solution was formulated with PBS, 0.53 mM of EDTA was added in the formulation); PBS; 96-well culture plate.
(§1) 1. A plate (10 cm) of cells in logarithmic growth phase that were normally cultured was collected;
2. The culture solution was sucked out. The plate was washed with 5 ml of PBS once or twice;
3. PBS was sucked out. 1.5 mL of 0.25% pancreatin was added to the plate to infiltrate the cells for 1 min;
4. The culture plate was placed in an incubator. Digestion was carried out for about 3 min at 37° C.;
(§2) 5. 3 mL of complete culture solution was added to the culture plate to stop the digestion. The cells were carefully scoured with micropipette (1 mL) to give a uniform cell suspension. The suspension was implanted into a 96-well cell culture disc by 4000 cells/100 μL per well. The culture plate was incubated overnight under 5% CO2 at 37° C. In day 2, 100 μL of culture solution comprising a compound was added in each well. The plate was further incubated for 72 h under 5% CO2 at 37° C.;
6. The culture solution was sucked out;
7. 100 μL of serum-free culture solution containing 0.5 mg/mL MTT was added in each well. The plate was incubated for 3 h;
8. The culture solution was carefully sucked out;
9. […]
10. OD values were determined at 490 nM. […]

[2] = tested on: SK-Br-3 cells; experiment: SK-Br-3 cell growth inhibition test (SRB assay); assay type: cell-based, human; conditions: 72 h
Experimental: SK-Br-3 Cell Growth Inhibition Test (SRB Assay)
II. Reagents and Consumable Materials
Culture medium: 85% DMEM+15% FBS; pancreatin (0.25% (w/v) solution was formulated with PBS, 0.53 mM of EDTA was added in the formulation); PBS; 96-well culture plate.
as §1
2. The culture solution was sucked out. The plate was washed with 5 mL of PBS once or twice;
3. 1.5 mL of 0.25% pancreatin was added to the plate to infiltrate the cells;
4. The pancreatin was sucked out. The culture plate was placed in an incubator. Digestion was carried out for about 2 min at 37° C.;
as §2, with “5. 4” for “5. 3”, “uniform single” for “uniform”, “culture plate” for “culture disc”, “by 10000” for “by 4000”
6. The culture solution was sucked out. 100 uL of TCA fixed cells which were diluted to 10% were added to each well. The plate was kept in a refrigerator for 1 h at 4° C.
7. TCA stationary liquid was sucked out. […]
13. OD values were determined at […]. […]

[3] = tested on: SK-OV-3 cells; experiment: SK-OV-3 cell growth inhibition test (MTT assay); assay type: cell-based, human; conditions: growth inhibition at 667 nM, 69 h
In short: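 Human ovarian SK-OV-3 cells, 4000 per well in McCoy's 5A with 10% FBS, rested overnight, then grown 69 h with compound at 37 °C, 5% CO2. MTT (0.5 mg/mL, 3 h), DMSO solubilisation, OD at 490 nm; inhibition ratio computed against untreated and blank wells.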

[4] = Solubility of the compound in water; assay type: physicochemical

solubility of the compound in water [4]	Structure (SMILES)	IC50 [1] [nM]	IC50 [2] [nM]	Inhibition Ratio (%) [3] [%]
–	COc1cccc2c1C(=O)c1c(O)c3c(c(O)c1C2=O)CC(O)(C(=O)COC(=O)CCC(=O)O)CC3OC1CC(n2cccc2)C(O)C(C)O1 (centres unmarked) [Compound A, 3′-pyrrolyldoxorubicin-14-oxo-succinic acid monoester, reference compound]	234	93	–
more than 7 mg/ml	CC(=O)O.COc1cccc2c1C(=O)c1c(O)c3c(c(O)c1C2=O)CC(O)(C(=O)COC(=O)CCC(=O)NCCCN1CCN(C)CC1)CC3O[C@H]1C[C@H](n2cccc2)[C@H](O)[C@H](C)O1 (stereo partly drawn) [Example 81, 10-((3′-(pyrrol-1-yll)-2′,3′,6′-trideoxy-alphal-l-lyxo-hexylpyranyl)oxy)-7,8,9,10-tetrahydro-6,8,11-trihydroxy-13-oxo-14-(4-((3-(4-methylpiperazin-1-yl)propyl)amino)-4-oxo-butyrato)-1-methoxy-5,12-naphthalenedione acetate]	–	–	56.4
–	COc1cccc2c1C(=O)c1c(O)c3c(c(O)c1C2=O)CC(O)(C(=O)COC(=O)CCC(=O)NCCOCCO)CC3OC1CC(n2cccc2)C(O)C(C)O1 (centres unmarked) [Example 62]	–	–	63.6
